Assay results: ChEMBL document CHEMBL4393657, “Tetrazole hybrids and their antifungal activities” (2019)
Values after ≈ are worked out from the molar mass of the structure shown.

Legend:
Type in all cases: functional
Candida tropicalis [1] = assay: Antifungal activity against Candida tropicalis assessed as reduction in fungal cell growth incubated for 24 hrs by broth microdilution method
Candida albicans [2] = assay: Antifungal activity against Candida albicans assessed as reduction in fungal cell growth incubated for 24 hrs by broth microdilution method
Pichia kudriavzevii [3] = assay: Antifungal activity against Candida krusei assessed as reduction in fungal cell growth incubated for 24 hrs by broth microdilution method
Nakaseomyces glabratus [4] = assay: Antifungal activity against Candida glabrata assessed as reduction in fungal cell growth incubated for 24 hrs by broth microdilution method
Aspergillus fumigatus [5] = assay: Potency index, ratio for MIC of fluconazole to MIC of compound for antifungal activity against Aspergillus fumigatus
Aspergillus niger [6] = assay: Potency index, ratio for MIC of fluconazole to MIC of compound for antifungal activity against Aspergillus niger
Nakaseomyces glabratus [7] = assay: Antifungal activity against Candida glabrata NCIM 3236 assessed as reduction in fungal cell growth incubated for 24 hrs by broth microdilution method; details: NCIM 3236, 24 h
Nakaseomyces glabratus [8] = assay: Potency index, ratio for MIC of fluconazole to MIC of compound for antifungal activity against Candida glabrata NCIM 3236 assessed as reduction in fungal cell growth incubated for 24 hrs by broth microdilution method
Candida tropicalis [9] = assay: Antifungal activity against Candida tropicalis NCIM 3110 assessed as reduction in fungal cell growth incubated for 48 hrs by broth microdilution method; details: NCIM 3110, 48 h
Candida tropicalis [10] = assay: Potency index, ratio for MIC of fluconazole to MIC of compound for Antifungal activity against Candida tropicalis NCIM 3110 assessed as reduction in fungal cell growth incubated for 24 hrs by broth microdilution method
Candida albicans [11] = assay: Antifungal activity against Candida albicans MTCC 227 assessed as reduction in fungal cell growth incubated for 24 hrs by broth microdilution method; details: MTCC 227, 24 h
Candida albicans [12] = assay: Antifungal activity against Candida albicans assessed as reduction in fungal cell growth incubated for 48 hrs by broth microdilution method
Pichia kudriavzevii [13] = assay: Antifungal activity against Candida krusei assessed as reduction in fungal cell growth incubated for 48 hrs by broth microdilution method
Candida parapsilosis [14] = assay: Antifungal activity against Candida parapsilosis ATCC 22019 assessed as reduction in fungal cell growth incubated for 48 hrs by broth microdilution method; details: Lodderomyces parapsilosis, ATCC 22019, 48 h
Candida tropicalis [15] = assay: Antifungal activity against Candida tropicalis assessed as reduction in fungal cell growth incubated for 48 hrs by broth microdilution method
Candida albicans [16] = assay: Potency index, ratio for MIC of fluconazole to MIC of compound for antifungal activity against Candida albicans V-01-191A-261 assessed as reduction in fungal cell growth incubated for 48 hrs by broth microdilution method
Cryptococcus neoformans [17] = assay: Potency index, ratio for MIC of fluconazole to MIC of compound for antifungal activity against Cryptococcus neoformans LA314 assessed as reduction in fungal cell growth incubated for 48 hrs by broth microdilution method
Aspergillus niger [18] = assay: Antifungal activity against Aspergillus niger assessed as reduction in fungal cell growth incubated for 72 hrs by broth microdilution method
Cryptococcus neoformans [19] = assay: Antifungal activity against Cryptococcus neoformans LA314 assessed as reduction in fungal cell growth incubated for 48 hrs by broth microdilution method; details: LA314, 48 h
Nakaseomyces glabratus [20] = assay: Antifungal activity against Candida glabrata assessed as reduction in fungal cell growth incubated for 48 hrs by broth microdilution method
Candida parapsilosis [21] = assay: Potency index, ratio for MIC of fluconazole to MIC of compound for Antifungal activity against Candida parapsilosis ATCC 22019 assessed as reduction in fungal cell growth incubated for 48 hrs by broth microdilution method
Candida tropicalis [22] = assay: Potency index, ratio for MIC of fluconazole to MIC of compound for Antifungal activity against Candida tropicalis assessed as reduction in fungal cell growth incubated for 48 hrs by broth microdilution method
Nakaseomyces glabratus [23] = assay: Potency index, ratio for MIC of fluconazole to MIC of compound for antifungal activity against Candida glabrata assessed as reduction in fungal cell growth incubated for 48 hrs by broth microdilution method
Nakaseomyces glabratus [24] = assay: Antifungal activity against Candida glabrata ATCC 36583 by broth microdilution method
Candida albicans [25] = assay: Antifungal activity against Candida albicans
Candida tropicalis [26] = assay: Antifungal activity against Candida tropicalis by broth microdilution method
Candida albicans [27] = assay: Potency index, ratio for MIC of fluconazole to MIC of compound for antifungal activity against Candida albicans TA
Candida albicans [28] = assay: Antifungal activity against Candida albicans TA
Candida albicans [29] = assay: In vivo antifungal activity against Candida albicans TA infected in CDF-1 mouse dosed orally assessed as survival of mouse; details: po
Aspergillus flavus [30] = assay: Antifungal activity against Aspergillus flavus
Aspergillus fumigatus [31] = assay: Antifungal activity against Aspergillus fumigatus
Aspergillus flavus [32] = assay: Antifungal activity against Aspergillus flavus NCIM 524 assessed as reduction in fungal cell growth incubated for 3 to 4 days by disk diffusion method
Talaromyces marneffei = assay: Antifungal activity against Penicillium marneffei assessed as reduction in fungal cell growth incubated for 3 to 4 days by disk diffusion method
Aspergillus fumigatus [33] = assay: Antifungal activity against Aspergillus fumigatus NCIM 902 assessed as reduction in fungal cell growth incubated for 3 to 4 days by disk diffusion method
[34] = system: Trichophyton mentagrophytes; assay: Antifungal activity against Trichophyton mentagrophytes assessed as reduction in fungal cell growth incubated for 3 to 4 days by disk diffusion method
Aspergillus niger [35] = assay: Antifungal activity against Aspergillus niger assessed as inhibition zone at 1 ug/ml incubated for 24 to 72 hrs by disk diffusion method; details: read-out: IZ
Aspergillus fumigatus [36] = assay: Antifungal activity against Aspergillus fumigatus assessed as inhibition zone at 1 ug/ml incubated for 24 to 72 hrs by disk diffusion method; details: read-out: IZ
Aspergillus flavus [37] = assay: Antifungal activity against Aspergillus flavus assessed as inhibition zone at 1 ug/ml incubated for 24 to 72 hrs by disk diffusion method; details: read-out: IZ
Trichoderma harzianum = assay: Antifungal activity against Trichoderma harzianum assessed as inhibition zone at 1 ug/ml incubated for 24 to 72 hrs by disk diffusion method; details: read-out: IZ

SMILES: Fc1cc2nc(SCc3ccc(-c4ccccc4-c4nnnn4C(c4ccccc4)(c4ccccc4)c4ccccc4)cc3)[nH]c2cc1Oc1ccc(Cl)cc1
- MIC (Candida tropicalis [1]): 16 µg/mL (≈ 20.7 µM)
- MIC (Candida albicans [2]): 16 µg/mL (≈ 20.7 µM)
- MIC (Pichia kudriavzevii [3]): 16 µg/mL (≈ 20.7 µM)
- MIC (Nakaseomyces glabratus [4]): 16 µg/mL (≈ 20.7 µM)

SMILES: O=C(/C=C/c1ccc(OC(F)F)c(O)c1)c1ccc(-n2cnnn2)cc1
- Ratio (Aspergillus fumigatus [5]): >4
- Ratio (Aspergillus niger [6]): >4

SMILES: O=c1c(OCc2nnn[nH]2)c(-c2ccc(F)cc2)oc2ccccc12
- MIC (Nakaseomyces glabratus [7]): 12.5 to 50 µg/mL (≈ 36.9 to 148 µM)
- Ratio (Nakaseomyces glabratus [8]): 16 - 64
- MIC (Candida tropicalis [9]): 12.5 to 50 µg/mL (≈ 36.9 to 148 µM)
- Ratio (Candida tropicalis [10]): 16 - 64
- MIC (Candida albicans [11]): 12.5 to 25 µg/mL (≈ 36.9 to 73.9 µM)

SMILES: C[C@H](n1nnnc1CCN1CCN(c2cccc(C(F)(F)F)c2)CC1)[C@](O)(Cn1cncn1)c1ccc(F)cc1F
- MIC (Candida albicans [12]): 0.12 to 16 µg/mL (≈ 0.208 to 27.7 µM)
- MIC (Pichia kudriavzevii [13]): 0.12 to 1 µg/mL (≈ 0.208 to 1.73 µM)
- MIC (Candida parapsilosis [14]): 0.12 to 1 µg/mL (≈ 0.208 to 1.73 µM)
- MIC (Candida tropicalis [15]): 0.12 to 1 µg/mL (≈ 0.208 to 1.73 µM)
- Ratio (Candida albicans [16]): 16
- Ratio (Cryptococcus neoformans [17]): 16
- MIC (Aspergillus niger [18]): 0.12 to 1 µg/mL (≈ 0.208 to 1.73 µM)
- MIC (Cryptococcus neoformans [19]): 0.12 to 1 µg/mL (≈ 0.208 to 1.73 µM)
- MIC (Nakaseomyces glabratus [20]): 0.12 to 1 µg/mL (≈ 0.208 to 1.73 µM)
- Ratio (Candida parapsilosis [21]): 16
- Ratio (Aspergillus niger [6]): 16
- Ratio (Candida tropicalis [22]): 16
- Ratio (Nakaseomyces glabratus [23]): 16

SMILES: Cn1c(-c2ccc(NC(=O)CSc3nnnn3-c3ccccc3)cc2)nc2cc(Cl)c(Cl)cc21
- MIC (Nakaseomyces glabratus [24]): 25 to 50 µg/mL (≈ 49 to 98 µM)
- MIC (Candida albicans [25]): 25 to 50 µg/mL (≈ 49 to 98 µM)
- MIC (Candida tropicalis [26]): 25 to 50 µg/mL (≈ 49 to 98 µM)

SMILES: C[C@@H](n1cnnn1)[C@](O)(Cn1cncn1)c1ccc(F)cc1F
- Ratio (Candida albicans [27]): 8
- MIC (Candida albicans [28]): 12.5 µg/mL (≈ 38.9 µM)
- ED50 (Candida albicans [29]): 0.18 mg/kg

SMILES: O=c1c(OCc2nnn[nH]2)c(-c2ccc(F)cc2)oc2ccc(Cl)cc12
- MIC (Nakaseomyces glabratus [7]): 12.5 to 50 µg/mL (≈ 33.5 to 134 µM)
- Ratio (Nakaseomyces glabratus [8]): 16 - 64
- MIC (Candida tropicalis [9]): 12.5 to 50 µg/mL (≈ 33.5 to 134 µM)
- Ratio (Candida tropicalis [10]): 16 - 64
- MIC (Candida albicans [11]): 12.5 to 25 µg/mL (≈ 33.5 to 67.1 µM)

SMILES: CC[C@H]1O[C@@H](/C(C)=C/[C@H](C)/C=C/[C@@H]2[C@@H](C)[C@@H]2/C=C/[C@@H]2O[C@H](Cc3nn[nH]n3)C[C@H](N(C)C)[C@H]2O)CC=C1C
- MIC (Aspergillus flavus [30]): 1.5 µg/mL (≈ 2.85 µM)
- MIC (Aspergillus fumigatus [31]): 1.5 µg/mL (≈ 2.85 µM)

SMILES: CCC(C)n1ncn(-c2ccc(N3CCN(c4ccc(OCC5COC(Cn6cncn6)(c6ccc(Cl)cc6Cl)O5)cc4)CC3)cc2)c1=O (centres undefined) [ITRACONAZOLE]
- MIC (Candida albicans [12]): 0.007 to 0.5 µg/mL (≈ 0.00992 to 0.709 µM)
- MIC (Pichia kudriavzevii [13]): 0.007 to 0.5 µg/mL (≈ 0.00992 to 0.709 µM)
- MIC (Candida parapsilosis [14]): 0.007 to 0.5 µg/mL (≈ 0.00992 to 0.709 µM)
- MIC (Candida tropicalis [15]): 0.007 to 0.5 µg/mL (≈ 0.00992 to 0.709 µM)
- MIC (Aspergillus flavus [32]): 6.25 µg/mL (≈ 8.86 µM)
- MIC (Talaromyces marneffei): 6.25 µg/mL (≈ 8.86 µM)
- MIC (Aspergillus niger [18]): 0.007 to 0.5 µg/mL (≈ 0.00992 to 0.709 µM)
- MIC (Aspergillus fumigatus [33]): 6.25 µg/mL (≈ 8.86 µM)
- MIC (Cryptococcus neoformans [19]): 0.007 to 0.5 µg/mL (≈ 0.00992 to 0.709 µM)
- MIC (Nakaseomyces glabratus [20]): 0.007 to 0.5 µg/mL (≈ 0.00992 to 0.709 µM)
- MIC [34]: 6.25 µg/mL (≈ 8.86 µM)

SMILES: c1ccc(-n2nnnc2SCCCSc2nnnn2C2CC2)cc1
- MIC (Aspergillus flavus [32]): 6.25 to 50 µg/mL (≈ 17.3 to 139 µM)
- MIC (Talaromyces marneffei): 6.25 to 50 µg/mL (≈ 17.3 to 139 µM)
- MIC (Aspergillus fumigatus [33]): 6.25 to 50 µg/mL (≈ 17.3 to 139 µM)
- MIC [34]: 6.25 to 50 µg/mL (≈ 17.3 to 139 µM)

SMILES: Cc1ccc2oc(-c3ccc(F)cc3)c(OCc3nnn[nH]3)c(=O)c2c1
- MIC (Nakaseomyces glabratus [7]): 12.5 to 50 µg/mL (≈ 35.5 to 142 µM)
- Ratio (Nakaseomyces glabratus [8]): 8 - 64
- MIC (Candida tropicalis [9]): 12.5 to 50 µg/mL (≈ 35.5 to 142 µM)
- Ratio (Candida tropicalis [10]): 8 - 64
- MIC (Candida albicans [11]): 12.5 to 50 µg/mL (≈ 35.5 to 142 µM)

SMILES: CCn1nnnc1SCCCSc1nnnn1-c1ccccc1
- MIC (Aspergillus flavus [32]): 6.25 to 50 µg/mL (≈ 17.9 to 143 µM)
- MIC (Talaromyces marneffei): 6.25 to 50 µg/mL (≈ 17.9 to 143 µM)
- MIC (Aspergillus fumigatus [33]): 6.25 to 50 µg/mL (≈ 17.9 to 143 µM)
- MIC [34]: 6.25 to 50 µg/mL (≈ 17.9 to 143 µM)

SMILES: Fc1cc2[nH]c(SCc3ccc(-c4ccccc4-c4nnnn4C(c4ccccc4)(c4ccccc4)c4ccccc4)cc3)nc2cc1-n1cncn1
- MIC (Candida tropicalis [1]): 4 to 8 µg/mL (≈ 5.62 to 11.2 µM)
- MIC (Candida albicans [2]): 4 to 8 µg/mL (≈ 5.62 to 11.2 µM)
- MIC (Pichia kudriavzevii [3]): 4 to 8 µg/mL (≈ 5.62 to 11.2 µM)
- MIC (Nakaseomyces glabratus [4]): 4 to 8 µg/mL (≈ 5.62 to 11.2 µM)

SMILES: N#Cc1c(-c2ccco2)nc2sc3c4nnnn4cnc3n2c1=O
- zone of inhibition at 1 µg/mL (Aspergillus niger [35]): 1.8 to 2.5 mm
- zone of inhibition at 1 µg/mL (Aspergillus fumigatus [36]): 1.8 to 2.5 mm
- zone of inhibition at 1 µg/mL (Aspergillus flavus [37]): 1.8 to 2.5 mm
- zone of inhibition at 1 µg/mL (Trichoderma harzianum): 1.8 to 2.5 mm
